Test results: patent publication US4578390A, “Hydroxybenzylamino derivatives as anti-inflammatory agents” (Merck & Co., Inc., priority 1983, dated 1986)

Tests used:
[1] = test system: inflammatory responses elicited by topically applied phorbol myristate acetate (PMA) or topically applied arachidonic acid (AA); conditions: previously established; cited from earlier work
[2] = test system: inflammatory responses elicited by topically applied phorbol myristate acetate (PMA) or topically applied arachidonic acid (AA); assay: Topical mouse ear assay (TME), edema; assay type: in vivo; conditions: PMA or AA challenge (which not stated), N=5 mice/group
Description: TABLE II Topical Mouse Ear Assay
Method: The right ears of mice (5 mice per group) were treated topically with either […] or 1000 μg AA alone or with the test compound in 25 μl of vehicle. The vehicle was water/pyridine/acetone (1:2:97). A control group of mice received the vehicle only. The mice were allowed food and water ad libitum during the treatment period; 2 hours for AA and 4 hours for PMA. The mice were sacrificed by cervical dislocation and a 6 mm diameter disc of tissue punched from both the treated and untreated ears. The tissue biopsies were immediately weighed and the weight increase of the treated ear relative to the weight of the untreated ear determined.
All of the data are expressed as the mean±SEM, N=5 mice/group.

[3] = test system: erythema induced on the skin of guinea pigs by UV radiation; assay: U.V. erythema assay; assay type: in vivo; conditions: topical, mean of 3 animals
Description: The U.V. erythema assay by which topical anti-inflammatory activity is determined, is based on the ability of the compounds of Formula I to inhibit the erythema induced on the skin of guinea pigs by UV radiation. It has been substantiated by recent studies that prostaglandin synthesis and the release thereof may be the primary process involved in the production of erythema. A protocol of the assay and some results thereof are summarized below in Table III.
Guinea pigs were depilated and stabilized for 30 minutes. Following anesthesia with Nembutal (35 mg/kg), they were exposed to a U.V. lamp for 45 minutes at a distance of seven inches from the abdominal surface. Compound was applied topically (seven applications in a total of 0.1 ml vehicle) 15 minutes post exposure. […]
Vehicle 1774--85% EtOH, 12% Propylene Glycol, 3% Methyl Salicylate
A numerical value 0-5 was assigned to the degree of erythema observed under standard lighting conditions. Drug effect on the developing erythema was calculated as follows: [formula] Results: % Inhibition of Erythema by (a) N-(2-hydroxy-5-methoxybenzyl)aniline

## COc1ccc2c(c1)c(CC(=O)O)c(C)n2C(=O)c1ccc(Cl)cc1 [Indomethacin, reference compound]
[1]
  activity in the topical mouse ear assay: active
[2]; dosage 1000 μg
  Edema (% inhibition): 88%

## C[C@@H]1C[C@H]2[C@@H]3CCC4=CC(=O)C=C[C@]4(C)[C@@]3(F)[C@@H](O)C[C@]2(C)[C@@]1(O)C(=O)CO [Dexamethasone, reference compound]
[1]
  activity in the topical mouse ear assay: active
[2]; dosage 150 μg
  Edema (% inhibition): 100%

## COc1ccc(O)c(CNc2nc3ccccc3[nH]2)c1 [C, 2-(2-hydroxy-5-methoxybenzylamino)benzimidazole]
[2]; dosage 300 μg
  Edema (% inhibition): 80%

## COc1ccc(O)c(CNc2cccs2)c1 [A, 2-(2-hydroxy-5-methoxybenzylamino)thiophene]
[2]; dosage 300 μg
  Edema (% inhibition): 77%

## COc1ccc(O)c(CNc2cccc3nsnc23)c1 [B, 4-(2-hydroxy-5-methoxybenzylamino)-2,1,3-benzothiadiazole]
[2]; dosage 300 μg
  Edema (% inhibition): 44%

## COc1ccc(O)c(CNc2ccccc2)c1 [N-(2-hydroxy-5-methoxybenzyl)aniline]
[3]; 0.1 mg
  % Inhibition of Erythema, 2 Hr.: 19.3%
  % Inhibition of Erythema, 3 Hr.: 16.7%
  % Inhibition of Erythema, 4 Hr.: 15.0%
  % Inhibition of Erythema, 6 Hr.: 6.7%
  % Inhibition of Erythema, 24 Hr.: 0%
[3]; 0.3 mg
  % Inhibition of Erythema, 2 Hr.: 55.3%
  % Inhibition of Erythema, 3 Hr.: 50.0%
  % Inhibition of Erythema, 4 Hr.: 46.7%
  % Inhibition of Erythema, 6 Hr.: 35.0%
  % Inhibition of Erythema, 24 Hr.: 0%
[3]; 1.0 mg
  % Inhibition of Erythema, 2 Hr.: 80.3%
  % Inhibition of Erythema, 3 Hr.: 91.7%
  % Inhibition of Erythema, 4 Hr.: 76.7%
  % Inhibition of Erythema, 6 Hr.: 63.3%
  % Inhibition of Erythema, 24 Hr.: 26.7%
[3]; 3.0 mg
  % Inhibition of Erythema, 2 Hr.: 100%
  % Inhibition of Erythema, 3 Hr.: 100%
  % Inhibition of Erythema, 4 Hr.: 63.3%
  % Inhibition of Erythema, 6 Hr.: 43.3%
  % Inhibition of Erythema, 24 Hr.: 33.3%
